# Data from patent publication US11420976B2 (priority 2020, dated 2022).
# Read-outs that look alike come from different tables or passages of the source.
# Test system: Human RSV-A (“Long” strain)
# Experiment: RSV-A assay (CPE, ATPlite readout in Hep-2 cells)
# Type: cell-based
# Settings: human respiratory syncytial virus, read-out: Human RSV-A (“Long” strain) EC50
# Text: Hep-2 cells, (originally derived from tumors grown in irradiated-cortisonised weanling rats that had been injected with epidermoid carcinoma tissue from a person's larynx, but later found to be indistinguishable from HeLa cells by PCR DNA analysis), were used for the culturing of genotype A, “Long” strain RSV. Flasks were inoculated with RSV and viral stocks were collected once cytopathic effect (CPE) was greater than 90%. Viral stocks in 25% sucrose media were snap frozen using liquid nitrogen to increase viral stability. Viral stock titers were quantified by tissue culture infectious dose 50% (TCID50) using 8,000 cells per well and 3-fold viral dilutions across a 96-well plate, cultured for 4 days. Viral stock titers were also quantified by a plaque forming unit assay, as described elsewhere.
# Following extensive parameter testing, the final assay is run as follows: Hep-2 cells are seeded into the inner 60 wells of a 96-well plate at 8,000 cells per well in a volume of 50 μL using Growth Media (DMEM without phenol red, 1% L-Glut, 1% Penn/Strep, 1% nonessential amino acids, 10% heat-inactivated FBS). 2-fold serial dilutions of control and test compounds are added to the wells in duplicate in a total volume of 25 μL. Viral stock is then added to the wells at a multiplicity of infection (MOI) of 0.1 in a volume of 25 μL, bringing the total volume of each well to 100 μL. The MOI is calculated using the PFU/mL, or TCID50 if unavailable. Each 96-well plate has a control column of 6 wells with cells and virus but no compound (negative control, max CPE), a column with cells but no compound or virus (positive control, minimum CPE), and a column with no cells or virus or compound (background plate/reagent control). The control wells with cells but no virus are given an additional […], of growth media containing an equal quantity of sucrose as those wells receiving the viral stock in order to keep consistent in media and volume conditions. The outer wells of the plate are filled with 125 μL of moat media (DMEM, 1% Penn/Strep) to act as a thermal and evaporative moat around the test wells. Following a 5-day incubation period, the plates are read using ATPlite (50 uL added per well), which quantifies the amount of ATP (a measure of cell health) present in each well. Assay plates are read using the Envision luminometer. […] EC50 ranges are as follows: A<0.2 μM; B≥0.2 μM.
# [1] = 120 h, Hep-2 cells, MOI 0.1, 5-day incubation, ATPlite
Structure (SMILES),EC50 [1] [nM],"EC50 (HEp-2, 120 h) [nM]"
"COc1cc(C(=O)NC[C@@](O)(c2cc3c(c(-c4ccc(F)cc4)n2)OC[C@@]3(N)C(F)(F)F)C(F)(F)F)ccc1OC1CC1 [Example 2, N—((R)-2-((R)-3-amino-7-(4-fluorophenyl)-3-(trifluoromethyl)-2,3-dihydrofuro[2,3-c]pyridin-5-yl)-3,3,3-trifluoro-2-hydroxypropyl)-4-cyclopropoxy-3-methoxybenzamide]",> 200,–
"COc1cc(C(=O)NC[C@](O)(c2cc3c(c(-c4ccc(F)cc4)n2)OC[C@@]3(N)C(F)(F)F)C(C)(C)C)ccc1OC1CC1 [Example 12, N—((S)-2-((R)-3-amino-7-(4-fluorophenyl)-3-(trifluoromethyl)-2,3-dihydrofuro[2,3-c]pyridin-5-yl)-2-hydroxy-3,3-dimethylbutyl)-4-cyclopropoxy-3-methoxybenzamide]",> 200,–
"COc1cc(C(=O)NC[C@](O)(c2cc3c(c(-c4ccc(F)cc4)n2)OC[C@@]3(NC(=O)CO)C(F)(F)F)C(F)(F)F)ccc1OC1CC1 [Example 14, 4-cyclopropoxy-3-methoxy-N—((S)-3,3,3-trifluoro-2-((R)-7-(4-fluorophenyl)-3-(2-hydroxyacetamido)-3-(trifluoromethyl)-2,3-dihydrofuro[2,3-c]pyridin-5-yl)-2-hydroxypropyl)benzamide]",< 200,–
"COC(=O)N[C@@]1(C(F)(F)F)COc2c1cc([C@@](C)(O)CNC(=O)c1ccc(OC3CC3)c(OC)c1)nc2-c1ccc(F)cc1 [Example 15, methyl ((R)-5-((S)-1-(4-cyclopropoxy-3-methoxybenzamido)-2-hydroxypropan-2-yl)-7-(4-fluorophenyl)-3-(trifluoromethyl)-2,3-dihydrofuro[2,3-c]pyridin-3-yl)carbamate]",–,< 200
"C[C@](O)(CNC(=O)c1cc(OC2CC2)c2ncccc2c1)c1cc2c(c(-c3ccc(F)cc3)n1)OC[C@@]2(N)C(F)(F)F [Example 16, N—((S)-2-((R)-3-amino-7-(4-fluorophenyl)-3-(trifluoromethyl)-2,3-dihydrofuro[2,3-c]pyridin-5-yl)-2-hydroxypropyl)-8-cyclopropoxyquinoline-6-carboxamide]",< 200,–
"COc1cc(C(=O)NC[C@](C)(O)c2cc3c(c(-c4ccc(F)cc4)n2)OC[C@@]3(N)C(F)(F)F)cc2cccnc12 [Example 17, N—((S)-2-((R)-3-amino-7-(4-fluorophenyl)-3-(trifluoromethyl)-2,3-dihydrofuro[2,3-c]pyridin-5-yl)-2-hydroxypropyl)-8-methoxyquinoline-6-carboxamide]",< 200,–
"C[C@](O)(CNC(=O)c1ccc(OC2CC2)c(-c2cccnc2)c1)c1cc2c(c(-c3ccc(F)cc3)n1)OC[C@@]2(N)C(F)(F)F [Example 18, N—((S)-2-((R)-3-amino-7-(4-fluorophenyl)-3-(trifluoromethyl)-2,3-dihydrofuro[2,3-c]pyridin-5-yl)-2-hydroxypropyl)-4-cyclopropoxy-3-(pyridin-3-yl)benzamide]",< 200,–
"COc1cc(C(=O)NC[C@](C)(O)c2cc3c(c(-c4ccc(F)cc4)n2)OC[C@@]3(NC(=N)NC#N)C(F)(F)F)ccc1OC1CC1 [Example 21, N—((S)-2-((R)-3-(3-cyanoguanidino)-7-(4-fluorophenyl)-3-(trifluoromethyl)-2,3-dihydrofuro[2,3-c]pyridin-5-yl)-2-hydroxypropyl)-4-cyclopropoxy-3-methoxybenzamide]",–,< 200
COc1cc(C(=O)NC[C@](O)(c2cc3c(c(-c4ccc(F)cc4)n2)OC[C@@]3(N)C(F)(F)F)C(F)(F)F)ccc1OCCO [Example 31],> 200,–
COc1cc(C(=O)NC[C@@](O)(c2cc3c(c(-c4ccc(F)cc4)n2)OC[C@]3(N)C(F)(F)F)C(F)(F)F)ccc1OCCO [Example 32],> 200,–
COc1cc(C(=O)NC[C@](O)(c2cc3c(c(-c4ccc(F)cc4)n2)OC[C@]3(N)C(F)(F)F)C(F)(F)F)ccc1OCCO [Example 33],> 200,–
COc1ccc(C(=O)NC[C@](O)(c2cc3c(c(-c4ccc(F)cc4)n2)OC[C@@]3(N)C(F)(F)F)C(F)(F)F)cc1OC [Example 34],> 200,–
COc1cnc(C(=O)NC[C@](O)(c2cc3c(c(-c4ccc(F)cc4)n2)OC[C@@]3(N)C(F)(F)F)C(F)(F)F)cc1OC [Example 35],> 200,–
COc1cc(C(=O)NC[C@](O)(c2cc3c(c(-c4ccc(F)cc4)n2)OC[C@@]3(N)C(F)(F)F)C(F)(F)F)ccc1OCC(C)C [Example 36],> 200,–
COCCOc1ccc(C(=O)NC[C@](O)(c2cc3c(c(-c4ccc(F)cc4)n2)OC[C@@]3(N)C(F)(F)F)C(F)(F)F)cc1OC [Example 37],> 200,–
COc1cc(F)c(C(=O)NC[C@](O)(c2cc3c(c(-c4ccc(F)cc4)n2)OC[C@@]3(N)C(F)(F)F)C(F)(F)F)cc1OC [Example 38],> 200,–

Structure (SMILES),EC50 [1] [nM],"EC50 (HEp-2, 120 h) [nM]"
COc1cc(C(=O)NC[C@](O)(c2cc3c(c(-c4ccc(F)cc4)n2)OC[C@@]3(N)C(F)(F)F)C(F)(F)F)cc(F)c1OC1CC1 [Example 39],> 200,–
COc1cc(C(=O)NC[C@](O)(c2cc3c(c(-c4ccc(F)cc4)n2)OC[C@@]3(N)C(F)(F)F)C(F)(F)F)nc2ccccc12 [Example 40],> 200,–
COc1cccc2cc(C(=O)NC[C@](O)(c3cc4c(c(-c5ccc(F)cc5)n3)OC[C@@]4(N)C(F)(F)F)C(F)(F)F)cnc12 [Example 41],> 200,–
COc1cc(C(=O)NC[C@](O)(c2cc3c(c(-c4ccc(F)cc4)n2)OC[C@@]3(N)C(F)(F)F)C(F)(F)F)ccc1C(F)(F)F [Example 42],> 200,–
COc1ccc2nc(C(=O)NC[C@](O)(c3cc4c(c(-c5ccc(F)cc5)n3)OC[C@@]4(N)C(F)(F)F)C(F)(F)F)cc(OC)c2c1 [Example 43],> 200,–
COC(=O)N[C@@]1(C(F)(F)F)COc2c1cc([C@@](O)(CNC(=O)c1ccc(OC3CC3)c(OC)c1)C(F)(F)F)nc2-c1ccc(F)cc1 [Example 44],> 200,–
CC(C)(C)S(=O)(=O)N[C@@]1(C(F)(F)F)COc2c1cc([C@@](C)(O)CNC(=O)c1cc(OC3CC3)c3ncccc3c1)nc2-c1ccc(F)cc1 [Example 45],> 200,–
COc1cc(C(=O)NC[C@](C)(O)c2cc3c(c(-c4ccc(F)cc4)n2)OC[C@@]3(NS(=O)(=O)C(C)(C)C)C(F)(F)F)cc2cccnc12 [Example 46],> 200,–
"COC[C@](O)(CNC(=O)c1cc(OC2CC2)c2ncccc2c1)c1cc2c(c(-c3ccc(F)cc3)n1)OC[C@@]2(N)C(F)(F)F [Example 50, N—((S)-2-((R)-3-amino-7-(4-fluorophenyl)-3-(trifluoromethyl)-2,3-dihydrofuro[2,3-c]pyridin-5-yl)-2-hydroxy-3-methoxypropyl)-8-cyclopropoxyquinoline-6-carboxamide]",< 200,–
"Nc1nc2ccc(C(=O)NC[C@](O)(c3cc4c(c(-c5ccc(F)cc5)n3)OC[C@@]4(N)C(F)(F)F)C3CC3)cc2s1 [Example 52, 2-amino-N—((S)-2-((R)-3-amino-7-(4-fluorophenyl)-3-(trifluoromethyl)-2,3-dihydrofuro[2,3-c]pyridin-5-yl)-2-cyclopropyl-2-hydroxyethyl)benzo[d]thiazole-6-carboxamide]",< 200,–
"COc1cc(C(=O)NC[C@](O)(c2cc3c(c(-c4ccc(F)cc4)n2)OC[C@@]3(N)C(F)(F)F)C2CC2)cc2sc(N)nc12 [Example 53, 2-amino-N—((S)-2-((R)-3-amino-7-(4-fluorophenyl)-3-(trifluoromethyl)-2,3-dihydrofuro[2,3-c]pyridin-5-yl)-2-cyclopropyl-2-hydroxyethyl)-4-methoxybenzo[d]thiazole-6-carboxamide]",< 200,–
"Nc1nc2c(F)cc(C(=O)NC[C@](O)(c3cc4c(c(-c5ccc(F)cc5)n3)OC[C@@]4(N)C(F)(F)F)C3CC3)cc2s1 [Example 54, 2-amino-N—((S)-2-((R)-3-amino-7-(4-fluorophenyl)-3-(trifluoromethyl)-2,3-dihydrofuro[2,3-c]pyridin-5-yl)-2-cyclopropyl-2-hydroxyethyl)-4-fluorobenzo[d]thiazole-6-carboxamide]",< 200,–
"COc1cc(C(=O)NC[C@](O)(c2cc3c(c(-c4ccc(F)cc4)n2)OC[C@@]3(N)C(F)(F)F)C2CC2)cc2cn(C)nc12 [Example 55, N—((S)-2-((R)-3-amino-7-(4-fluorophenyl)-3-(trifluoromethyl)-2,3-dihydrofuro[2,3-c]pyridin-5-yl)-2-cyclopropyl-2-hydroxyethyl)-7-methoxy-2-methyl-2H-indazole-5-carboxamide]",< 200,–
C[C@](O)(CNC(=O)c1cc(OC2CC2)c2ncccc2c1)c1cc2c(c(-c3ccc(F)c(Cl)c3)n1)OC[C@@]2(N)C(F)(F)F [Example 56],> 200,–
COc1cc(C(=O)NC[C@](O)(c2cc3c(c(-c4ccc(F)cc4)n2)OC[C@@]3(N)C(F)(F)F)C2COC2)ccc1OC1CC1 [Example 57],> 200,–
